In ChEMBL document CHEMBL4152362, “Discovery of DS-6930, a potent selective PPARγ modulator. Part II: Lead optimization” (Bioorg Med Chem, 2018):
pEC50: −log10 of the molar value. ≈ marks a conversion by molar mass, not a printed value. Calls of active or inactive are those of the source. The rule behind the calls is not given here.

Tests used:
[1] = AUC (0 to 24 hrs) in Zucker diabetic fatty rat at 3 mg/kg, po dosed once daily for 14 days and followed by additional administration on day 15; assay type: ADME, organism-based; set-up: time < 24 hr, dose 3 mg/kg, route oral; conditions: in vivo
[2] = tested on: Rattus norvegicus; assay: Toxicity in Zucker diabetic fatty rat assessed as body weight gain at 3 mg/kg, po administered once daily for 14 days relative to control; assay type: organism-based; conditions: in vivo, 336 h
[3] = Tmax in Zucker diabetic fatty rat at 3 mg/kg, po dosed once daily for 14 days and followed by additional administration on day 15; assay type: ADME, organism-based; conditions: in vivo
[4] = Cmax in Zucker diabetic fatty rat at 3 mg/kg, po dosed once daily for 14 days and followed by additional administration on day 15; assay type: ADME, organism-based; set-up: dose 3 mg/kg, route oral; conditions: in vivo
[5] = tested on: Rattus norvegicus; assay: Antidiabetic activity in Zucker diabetic fatty rat assessed as reduction in plasma glucose level at 3 mg/kg, po administered once daily for 14 days measured on day 15 relative to control; assay type: functional; set-up: scale not given: the % may be the effect or the level left
[6] = Aqueous thermodynamic solubility of the compound in pH 6.8 solution up to 4 hrs by HPLC-UV analysis; assay type: physicochemical; conditions: read-out: Therm_solubility
[7] = 1-octanol/PBS distribution co-efficient, log D of the compound at […] at pH 7.4 after 30 mins by HPLC-MS/MS method; assay type: physicochemical
[8] = target: T1, Peroxisome proliferator-activated receptor delta (Homo sapiens) (UniProt Q03181); assay: Agonist activity at PPARdelta (unknown origin) at 10 uM
T1 sequence (whole entry): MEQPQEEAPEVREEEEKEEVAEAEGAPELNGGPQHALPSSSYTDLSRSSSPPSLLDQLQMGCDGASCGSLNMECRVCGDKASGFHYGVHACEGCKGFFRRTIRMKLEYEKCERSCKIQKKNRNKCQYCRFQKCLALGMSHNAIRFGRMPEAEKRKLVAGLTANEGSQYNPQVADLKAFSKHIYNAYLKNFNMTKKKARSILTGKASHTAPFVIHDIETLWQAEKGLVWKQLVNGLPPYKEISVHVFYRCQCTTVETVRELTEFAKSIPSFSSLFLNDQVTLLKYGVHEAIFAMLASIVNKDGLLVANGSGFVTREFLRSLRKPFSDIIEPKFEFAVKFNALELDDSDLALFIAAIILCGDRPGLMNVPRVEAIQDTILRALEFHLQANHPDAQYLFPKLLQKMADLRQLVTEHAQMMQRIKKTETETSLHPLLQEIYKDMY

[9] = target: T2, Peroxisome proliferator-activated receptor alpha (Homo sapiens) (UniProt Q07869); assay: Agonist activity at recombinant human GAL4-DBD fused PPARalpha LBD expressed in COS7 cells at 10 uM after 24 hrs by luciferase reporter gene assay relative to 2-(4-tert-Butylphenoxy)-3-[4-[2-[(4-pyridin-2-ylbenzoyl)amino]ethoxy] phenyl]propionic acid; assay type: cell-based
T2 sequence (whole entry): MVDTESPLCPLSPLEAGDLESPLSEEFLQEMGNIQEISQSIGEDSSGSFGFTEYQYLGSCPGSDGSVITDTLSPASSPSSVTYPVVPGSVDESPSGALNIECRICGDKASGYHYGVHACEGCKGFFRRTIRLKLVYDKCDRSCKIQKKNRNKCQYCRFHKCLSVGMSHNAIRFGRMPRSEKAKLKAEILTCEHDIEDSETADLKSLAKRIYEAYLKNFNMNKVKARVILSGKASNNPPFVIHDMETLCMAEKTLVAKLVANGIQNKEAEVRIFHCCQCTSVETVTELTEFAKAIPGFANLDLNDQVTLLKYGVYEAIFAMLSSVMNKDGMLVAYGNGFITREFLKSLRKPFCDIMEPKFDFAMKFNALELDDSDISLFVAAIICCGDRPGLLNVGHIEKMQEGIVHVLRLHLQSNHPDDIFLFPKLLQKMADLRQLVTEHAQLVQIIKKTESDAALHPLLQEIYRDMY

[10] = target: T3, Peroxisome proliferator-activated receptor gamma (Homo sapiens) (UniProt P37231); assay: Agonist activity at recombinant human GAL4-DBD fused PPARgamma LBD expressed in COS7 cells at 10 uM after 24 hrs by luciferase reporter gene assay relative to rosiglitazone; assay type: cell-based
T3 sequence (whole entry): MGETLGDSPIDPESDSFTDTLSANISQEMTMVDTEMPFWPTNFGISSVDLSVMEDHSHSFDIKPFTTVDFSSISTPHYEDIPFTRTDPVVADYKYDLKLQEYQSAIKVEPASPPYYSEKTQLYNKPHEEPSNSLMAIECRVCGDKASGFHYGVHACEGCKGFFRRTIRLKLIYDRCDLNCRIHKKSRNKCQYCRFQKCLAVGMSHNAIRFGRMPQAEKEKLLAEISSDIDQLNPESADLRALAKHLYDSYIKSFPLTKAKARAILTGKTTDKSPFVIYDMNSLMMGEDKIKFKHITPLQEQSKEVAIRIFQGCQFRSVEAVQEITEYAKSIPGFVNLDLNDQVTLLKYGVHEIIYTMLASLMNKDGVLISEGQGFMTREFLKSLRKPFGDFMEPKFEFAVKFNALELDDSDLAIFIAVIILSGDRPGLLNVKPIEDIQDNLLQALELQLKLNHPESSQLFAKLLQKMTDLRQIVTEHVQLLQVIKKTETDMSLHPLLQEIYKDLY

[11] = target: T4, Peroxisome proliferator-activated receptor gamma (Homo sapiens, UniProt P37231); assay: Agonist activity at recombinant human GAL4-DBD fused PPARgamma LBD expressed in COS7 cells after 24 hrs by luciferase reporter gene assay; assay type: cell-based
T4 sequence (P37231 whole entry): T3 sequence (whole entry)

[12] = Apparent permeability of the compound after 4 hrs by PAMPA; assay type: ADME
[13] = target: T5, Peroxisome proliferator-activated receptor alpha (Homo sapiens, UniProt Q07869); assay: Agonist activity at recombinant human GAL4-DBD fused PPARalpha LBD expressed in COS7 cells after 24 hrs by luciferase reporter gene assay; assay type: cell-based
T5 sequence (Q07869 whole entry): T2 sequence (whole entry)

[14] = Metabolic stability in human liver microsomes after 0.5 hrs; assay type: ADME, microsome; conditions: read-out: Stability

Row | SMILES | AUC at 24 h [1] [ng·h/mL] | Tmax [3] [h] | Cmax [4] [ng/mL] | solubility thermodynamic at 4 h [6] [µg/mL] | logD at 0.5 h [7] | Activity [8] | Emax [9] [%] | Emax [10] [%] | pEC50 [11] | Papp at 4 h [12] [×10⁻⁶ cm/s] | pEC50 [13] | remaining at 0.5 h [14] [%] | Activity [2] [%] | Activity [5] [%]
1 | Cc1cnc(Oc2ccc3nc(COc4cccc(C(=O)[O-])c4)n(C)c3c2)c(F)c1.[Na+] | 3610 | 2 | 420 |  |  |  |  |  |  |  |  |  | 10.8 | 65.7
2 | Cc1cc(C)cc(Oc2ccc3nc(COc4cccc(C(=O)O)c4)n(C)c3n2)c1 |  |  |  | 0.5 (≈ 1.24 µM) | 2.3 | inactive | 19 | 83 | 7.39 | 17.4 | < 5.00 | 71 |  | 
3 | Cc1ccc(Oc2ccc3nc(COc4cccc(C(=O)O)c4)n(C)c3n2)cc1F |  |  |  | 5.2 (≈ 12.8 µM) | 2.1 | inactive | 56 | 80 | 7.30 | 14.8 |  | 96 |  | 
4 | Cc1ccc(Oc2ccc3nc(COc4cccc(C(=O)O)c4)n(C)c3n2)cc1C |  |  |  | 16 (≈ 39.7 µM) | 2.2 | inactive | 30 | 74 | 7.05 | 12.4 | < 5.00 | 73 |  | 
5 | Cc1ccc(Oc2ccc3nc(COc4cccc(C(=O)O)c4)n(C)c3c2)nc1C |  |  |  | 190 (≈ 471 µM) | 1.3 |  | 8 | 81 | 6.75 | 7.7 | < 5.00 | 100 |  | 
6 | Cc1ccc(Oc2ccc3nc(COc4cccc(C(=O)O)c4)n(C)c3c2)nc1 |  |  |  | 31 (≈ 79.6 µM) | 0.9 |  | 4 | 42 | 6.89 | 4.8 | < 5.00 | 94 |  | 
7 | Cn1c(COc2cccc(C(=O)O)c2)nc2ccc(Oc3ccc(F)cc3)nc21 |  |  |  | 11 (≈ 28 µM) | 1.5 | inactive | 55 | 62 | 5.97 | 8.6 |  | 78 |  | 
8 | Cc1ccc(Oc2ccc3nc(COc4cccc(C(=O)O)c4)n(C)c3n2)c(C)c1 |  |  |  | 0.9 (≈ 2.23 µM) | 2.3 | inactive | 17 | 75 | 7.00 | 28.8 | < 5.00 | 63 |  | 
9 | Cn1c(COc2cccc(C(=O)O)c2)nc2cnc(Oc3ccc4c(c3)OCC4)cc21 |  |  |  | 79 (≈ 189 µM) | 0.6 | inactive | 4 | 59 | 6.47 | 3.6 | < 5.00 | 100 |  | 
10 | Cc1cccnc1Oc1ccc2nc(COc3cccc(C(=O)O)c3)n(C)c2c1 |  |  |  | 37 (≈ 95 µM) | 0.9 |  | 8 | 83 | 6.45 | 6 | < 5.00 | 100 |  | 

Now from value to compound, other results behind:

Row | AUC at 24 h [1] [ng·h/mL] | Tmax [3] [h] | Cmax [4] [ng/mL] | solubility thermodynamic at 4 h [6] [µg/mL] | logD at 0.5 h [7] | Activity [8] | Emax [9] [%] | Emax [10] [%] | pEC50 [11] | Papp at 4 h [12] [×10⁻⁶ cm/s] | pEC50 [13] | remaining at 0.5 h [14] [%] | SMILES | Activity [2] [%] | Activity [5] [%]
11 |  |  |  | 1.7 (≈ 3.97 µM) | 2.2 | inactive | 45 | 88 | 6.57 | 25.6 | < 5.00 | 92 | Cn1c(COc2cccc(C(=O)O)c2)nc2ccc(Oc3ccc(Cl)c(F)c3)nc21 |  | 
12 |  |  |  | 360 (≈ 924 µM) | 1 | inactive | 6 | 80 | 6.13 | 6.8 | < 5.00 | 80 | Cc1ccc(Oc2cc3c(cn2)nc(COc2cccc(C(=O)O)c2)n3C)cc1 |  | 
13 |  |  |  | 160 | 1.2 | inactive |  | 61 |  |  |  | 100 | Cl.Cl.Cn1c(COc2cccc(C(=O)O)c2)nc2ccc(Oc3ccccc3)nc21 |  | 
14 | 1400 | 2.4 | 130 | 9.9 (≈ 22.3 µM) | 1.9 |  | 6 | 61 | 7.05 | 16.1 | < 5.00 | 100 | Cn1c(COc2cccc(C(=O)O)c2)nc2ccc(Oc3ncc(Cl)cc3Cl)cc21 | 10.1 | 53.3
15 |  |  |  | 11 (≈ 25.7 µM) | 1.4 | inactive | 15 | 73 | 5.93 | 11.2 | < 5.00 | 98 | Cn1c(COc2cccc(C(=O)O)c2)nc2cnc(Oc3ccc(Cl)c(F)c3)cc21 |  | 
